Reference: patent publication US20250144050A1, “AMINOTHIOL-CONJUGATES, COMPOSITIONS, AND METHODS OF USE THEREOF” (THE BURLINGTON HC RESEARCH GROUP, INC., priority 2021, published 2025)
Like-named read-outs stand apart in the source and are kept apart here.

What was measured:
[1] = test system: C3H/10T1/2 cells; settings: 1 milliM; before, during, and after radiation exposure; cited from earlier work
[2] = test system: SKOV3 ovarian cancer cells; assay type: cell-based
Experimental: (§1) Trypan Blue exclusion was applied as a complementary confirmation probe for cell death.
(§2) Statistical comparisons of differences in individual dose-response metrics between individual/paired drug treatments and various cell lines were conducted using the Student's t-test, with P-values <0.05 considered significant.
(§3) Relative cell growth inhibition values for differing levels each drug alone and in combination were input into SynergyFinder to generated dose-response curves for each drug alone, to produce a dose-response matrix, to visualize the distribution of areas of differing degrees of synergism in a 2-dimension heatmap and 3-dimension volcano plot, and to calculate average and maximum synergy scores in selected human cancer cell lines. […] Synergy scores <10 means that the interaction between two drugs was likely to be antagonistic; scores from −10 to 10 means the interaction between two drugs was likely to be additive; and scores >10 means the interaction between two drugs was likely to be synergistic.

[3] = test system: PC3 cells; settings: cited from earlier work
[4] = test system: NCI-H460 NSCLC cells; assay type: cell-based; settings: NCI-H460; each drug alone; 48 h
Experimental: as §1, §2, §3

[5] = test system: HMESO-1 malignant mesothelioma cells; assay type: cell-based; settings: HMESO-1; each drug alone; 48 h
Experimental: as §1, §2, §3

[6] = test system: PPM-Mill malignant mesothelioma cells; assay type: cell-based; settings: PPM-Mill; each drug alone; 48 h
Experimental: as §1, §2, §3

[7] = test system: TOV21G ovarian cancer cells; assay type: cell-based; settings: TOV21G, 48 h
Experimental: as §1, §2, §3

[8] = test system: A549 NSCLC cells
Experimental: as §1, §2, §3

[9] = test system: MDA-MB-231 cells; settings: cited from earlier work
[10] = test system: metastatic melanoma; settings: patients with advanced malignant melanoma; cited from earlier work
[11] = test system: human cancer cell lines; experiment: CyQUANT cell viability assay, 48-hour exposure, panel averages; settings: for GI50: Homo sapiens, 48 h
Experimental: After drug treatments, fluorescence readings from 96-well plates were obtained using the CyQUANT dye and compared to standard curves for each cell line to determine cell viability. […] Trypan blue exclusion was used to estimate cell numbers in a few pilot experiments and was thereafter applied to confirm cell death.
A series of experiments was conducted to assess the relative efficacy of 4SP65, 1LP65, and amifostine as single agents in the same human cancer cell lines. First, the effectiveness of 4SP65 was tested against 15 cancer cell lines derived from seven tissues. […] The effectiveness of 0 to ≤500 μM amifostine was tested in sets of cancer cell lines reported to have either medium, high, or no expression of alkaline phosphatase.
Trans. R Soc. Lond. […] Using cell numbers based on fluorescence measurements and standard curves [time zero, (Tz), control growth, (C), and test growth in the presence of drug at five or more concentration levels (Ti)], the percentage growth was calculated at each drug concentration level. The percentage of growth inhibition was calculated as follows:
The LC50/99 was calculated using Equation 2=−50 and Eq. 2=−99, respectively. […] For NHMECs, the relationships between drug exposure levels and fluorescence units were used to define dose-response metrics. The selectivity index (SI) values for individual drug treatments were calculated as IC50 levels in NHMECs divided by the IC50 values in cancer cell lines.

[12] = test system: radiation-induced tumors; settings: WR2721 plus radiation (87% with radiation alone); cited from earlier work
[13] = 400 mg/kg; 206 cGy gamma rays; female mice; cited from earlier work
[14] = test system: mouse splenocytes; settings: cited from earlier work
[15] = test system: angiostatin; settings: cited from earlier work
[16] = test system: Sa-NH sarcoma cells; settings: 50 mg/kg every other day for 6 days; delayed from 12 days; cited from earlier work
[17] = cited from earlier work
[18] = Children; cited from earlier work
[19] = injection at 500-910 mg/m^2; cited from earlier work
[20] = some in vitro studies; cited from earlier work
[21] = mice, cited from earlier work
[22] = test system: H1975 cells; settings: H1975, each drug alone, 48 h
Experimental: as §1, §2, §3

[23] = cited from earlier work; remark: listed apart in the source
[24] = each drug alone, 48 h, cisplatin series
[25] = each drug alone, 48 h, gefitinib series

## CNCCCNCCCS [WR151326]
[1]
  protection factor: 1.8

## CC(=O)O[C@H]1C(=O)[C@@]2(C)[C@H]([C@H](OC(=O)c3ccccc3)[C@]3(O)C[C@H](OC(=O)[C@H](O)[C@@H](NC(=O)c4ccccc4)c4ccccc4)C(C)=C1C3(C)C)[C@]1(OC(C)=O)CO[C@@H]1C[C@@H]2O [paclitaxel, reference compound]
[2]; SKOV3 cells
  fold lower dose than 1LP65 at the GI50 level: 77 fold
[3]
  GI50: 36.4 µM

## N.N.[Cl][Pt][Cl] [cisplatin, reference compound]
[4]
  GI50: 3.1 ± 0.1 µM
  IC50: 4 ± 0.1 µM
  LC99: ND (>15) μM
  TGI: ND (>15) μM
[5]
  GI50: 3 ± 0.4 µM
  IC50: 8.6 ± 1.1 µM
  LC99: ND (>15) μM
  TGI: 6.7 ± 0.7 µM
[6]
  GI50: 27.2 ± 3.4 µM
  IC50: 40.5 ± 8.1 µM
  LC99: ND (>100) μM
  TGI: ND (>100) μM
[2]; SKOV3, each drug alone, 48 h
  GI50: 5.3 ± 0.4 µM
  IC50: 6.7 ± 0.6 µM
  LC99: ND (>21) μM
  TGI: ND (>21) μM
[7]; 4SP65-cisplatin combined
  LC99, amount of each drug in combination: 5.9 µM
[7]; each drug alone
  GI50: 2.2 ± 0.4 µM
  IC50: 3 ± 0.3 µM
  LC99: 17.2 µM
  TGI: 6.7 ± 0.3 µM
[7]; each drug alone, listed as DDP
  LC99: 17.2 ± 5.2 µM
[8]; 6 μM cisplatin alone
  reduction in starting cell numbers: 56%
[8]; 4SP65-cisplatin combined, 48 h
  LC99, amount of each drug in combination: 7 µM
[8]; [24]
  GI50: 3.5 ± 0.7 µM
  IC50: 4.7 ± 0.8 µM
  LC99: 24.4 ± 2.6 µM
  TGI: 8.2 ± 1.0 µM
[9]
  GI50: 22.4 µM
[10]
  partial response: 10%

## NCCCNCCSP(=O)(O)O [amifostine]
[11]; read-out: GI50, range, four of 14 cell lines with moderate/high alkaline phosphatase expression, 48 hours
  GI50: 47 to 81 µM
[11]; read-out: GI50, range, seven of 14 cell lines, 48 hours
  GI50: 113 to 378 µM
[11]; read-out: exposure failing to induce growth inhibitory effects (GI50), three of 14 cell lines, 48 hours
  GI50: > 500 µM
[11]; any of 14 cell lines, 48 hours
  exposure without cytolytic effects (LC50/LC99): > 500 µM
[11]; only HCC38 and PC3
  concentration inducing TGI level effects: > 100 µM
[12]
  mice developing tumors: 26%
[13]
  extension of total life expectancy: 65 days
[14]
  reduction of cyclophosphamide-induced HPRT mutations: 8 fold
[15]; 200 mg/ml (instead of 50 mg/ml)
  change of angiostatin levels: did not change angiostatin levels
[15]; mouse, in vivo
  increase of serum angiostatin levels: 4 fold
[16]
  days for tumors to reach ideal size for amputation: 13 days
[17]; kidney (in vivo)
  level with no observable cytotoxicity: > 17,000 picomol/10 (6) cells
[17]; liver (in vivo)
  level with no observable cytotoxicity: > 7400 picomol/10 (6) cells
[17]; small intestine (in vivo)
  level with no observable cytotoxicity: > 3000 picomol/10 (6) cells
[18]
  single dose with no untoward effects: up to 2700 mg/m2

## NCCCNCCS [WR1065, 2-(3-aminopropyl)aminoethanethiol]
[1]
  protection factor: 3.23
[19]
  peak plasma level: ~100 µM
  plasma T1/2: ~0.167 h
[20]
  lowest efficacious concentration: 0.4 µM
[21]; i.p.
  maximally tolerated dose (MTD): 432 mg/kg BW
[21]; p.o.
  maximally tolerated dose (MTD): 720 mg/kg BW

## COc1cc2ncnc(Nc3ccc(F)c(Cl)c3)c2cc1OCCCN1CCOCC1 [gefitinib, reference compound]
[8]; [25]
  LC99: ND (>25) μM
  TGI: > 25 µM
[8]; each drug alone, 48 h, gefitinib series, listed as GEF
  TGI: ND (>25) μM
[22]
  LC99: ND (>25) μM
  TGI: > 25 µM
[22]; listed as GEF
  TGI: ND (>25) μM
[23]; 250 mg daily, cancer patients, read-out: Cmax plasma concentrations
  Cmax: 500 to 1000 nM
[23]; after 3 days of treatment
  trough levels: 0.257 to 4.50 µM
[23]; after 8 days of treatment
  trough levels: 0.282 to 6.55 µM
[23]; in vivo
  elimination half-life: 48 h
